{"source": "patent US20250195528A1", "about": "“DOSE REGIMEN OF VICASINABIN” (Hoffmann-La Roche Inc., priority 2022, published 2025)", "key": {"human CB1": {"target": "human CB1 (Homo sapiens, UniProt P21554)", "sequence (P21554 whole entry)": "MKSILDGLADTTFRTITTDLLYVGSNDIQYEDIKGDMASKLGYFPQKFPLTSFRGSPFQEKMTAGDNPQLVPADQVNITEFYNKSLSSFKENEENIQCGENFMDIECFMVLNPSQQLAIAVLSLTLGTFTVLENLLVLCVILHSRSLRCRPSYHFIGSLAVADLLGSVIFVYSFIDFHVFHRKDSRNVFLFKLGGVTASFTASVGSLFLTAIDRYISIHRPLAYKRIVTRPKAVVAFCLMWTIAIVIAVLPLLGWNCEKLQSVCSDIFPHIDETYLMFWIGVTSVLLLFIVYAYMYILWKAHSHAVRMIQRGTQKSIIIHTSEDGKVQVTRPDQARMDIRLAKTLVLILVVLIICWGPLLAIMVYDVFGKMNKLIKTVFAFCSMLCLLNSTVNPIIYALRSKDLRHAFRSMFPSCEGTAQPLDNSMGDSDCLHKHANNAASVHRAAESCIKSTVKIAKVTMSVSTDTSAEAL", "assay": "Human CB1 cAMP assay", "format": "cell-based", "source_text": "Inhibition of cAMP accumulation in Chinese hamster ovary cells stably expressing recombinant CB2 was used to determine the functional potency of RO6868847 for different CB2 species and the selectivity over the closely related CB1."}, "cynomolgus monkey CB2": {"target": "cynomolgus monkey CB2 (Macaca fascicularis, UniProt G7NVV5)", "sequence (G7NVV5 1-360)": "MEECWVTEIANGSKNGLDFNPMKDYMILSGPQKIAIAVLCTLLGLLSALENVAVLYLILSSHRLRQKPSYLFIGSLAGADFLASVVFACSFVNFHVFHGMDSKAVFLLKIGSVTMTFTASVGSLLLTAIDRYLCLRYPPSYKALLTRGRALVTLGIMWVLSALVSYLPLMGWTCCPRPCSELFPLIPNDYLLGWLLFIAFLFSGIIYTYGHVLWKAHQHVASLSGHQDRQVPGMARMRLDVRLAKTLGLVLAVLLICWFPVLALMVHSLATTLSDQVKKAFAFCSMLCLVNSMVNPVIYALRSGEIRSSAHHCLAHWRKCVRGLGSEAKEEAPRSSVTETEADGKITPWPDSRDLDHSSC", "assay": "Radioligand binding to CB2, CHO cells"}, "[1]": {"test_system": "laser-induced neovascularization", "format": "in vivo, rat", "protocol": "Pharmacological studies were performed in vitro and in vivo to investigate the potency, selectivity and activity of RO6868847. Pharmacological effects were determined in vivo in two different diabetic animal models which include the streptozotocin (STZ)-induced rat Type 1 diabetes and genetic Type 2 diabetes mouse models as well as in two acute models with acute inflammatory stimulus (LPS-injections) or laser injury (CNV). Additional in vitro pharmacology studies were performed to explore the pharmacological effect of RO6868847 and the suitability of the assays as biomarkers of target engagement and pharmacodynamic effect (PD) in human whole blood obtained from either healthy volunteers or diabetic patients.\nThe diversity of the tested models (including acute challenge versus disease-modifying models) and the absence of a recommended nonclinical DME/DR model with proven clinical translatability presents a challenge for the estimation of pharmacologically active exposure in humans.\nExposure was derived from satellite animals or extrapolated from previous PK or PD studies in the same species.\nBased on this integrated assessment, the pharmacologically active exposure range observed in rats spans 2 logs, with an upper bound (unbound AUC0-24 [S-epimer]=546 ng·hr/mL) corresponding to the full effect at 10 mg/kg in a rat STZ-induced Type 1 diabetes model and the lower bound (unbound AUC0-24 [S-epimer]=2.8 ng·hr/mL) corresponding to 50% decrease in disease marker (hypoerfluorescence area) in a laser-induced NV rat model."}, "[2]": {"test_system": "LPS-induced G-CSF, IFNγ, IL1β and TNFα levels in whole blood", "assay": "In vitro LPS whole blood challenge assay", "format": "cell-based, human", "protocol": "In order to explore any putative anti-inflammatory pharmacodynamic effect mediated by the CB2 agonist RO6868847 in a potentially clinically relevant human sample, an ex vivo whole blood lipopolysacharid (LPS) challenge assay was performed. Sodium heparin whole blood samples from healthy participants (n=8) were incubated in vitro for 1 hour at 37° C. with eight increasing concentrations of RO6868847 (0-30 μM) and exposed to LPS (100 ng/ml). After 18 h at 37° C. supernatants were analyzed for alterations in a range of chemokines and cytokines using Luminex-bead based multiplex ELISAs.\nIn addition, this in vitro LPS whole blood challenge assay was also used in samples from diabetic (Type I and Type II) and matched healthy participants (table 6). In order to explore whether the exposure (0-30 μM)-response relationship of RO6868847 and the respective alterations in cytokine levels may be changed by any chronic inflammatory conditions in diabetes (DM) and/or in elderly healthy participants (HP), who are anticipated to be the study population of the Phase II proof of concept Study."}, "[3]": {"assay": "Stability of drug substance", "format": "physicochemical", "protocol": "For Phase I, film-coated tablets for oral administration containing 0.05, 0.75, 10, or 100 mg of RO6868847 drug substance were developed for clinical use. Three placebo film-coated tablets were formulated to match the active film-coated tablets in size and in appearance: one size to match the active 0.05 and 0.75 mg film-coated tablets and one size each to match the active 10 and 100 mg film-coated tablets."}, "[4]": {"test_system": "78 additional receptors and ion channels", "assay": "Radioligand binding assays on additional receptors and ion channels"}, "[5]": {"assay": "Study BP40387 Part 3 (MAD) pharmacokinetics, once daily for 14 days;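 also: phase I trial BP40387 in healthy male and female volunteers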"}, "[6]": {"test_system": "LPS-induced cytokine production in whole blood", "assay": "Ex vivo LPS whole blood challenge in participants of Study BP40387 (MAD)", "parameters": "species or system human", "protocol": "In addition to the CB2R-TE whole blood assay, an in vitro LPS whole blood challenge assay was applied using blood from healthy participants that received multiple 300 mg doses of RO6868847 6 in the MAD study.\nIn example 2, target engagement of RO6868847 was assessed on circulating B-cells from whole blood samples utilizing a newly developed exploratory flow cytometry assay to monitor RO6868847-induced CB2 receptor internalization on B-cells. […] Upon treatment discontinuation CB2 receptor surface expression returned to baseline approximately within 1 week. Target engagement appeared to reach a plateau at doses of 100 mg RO6868847 with only marginal increases at higher doses of RO6868847. In example 2, pro-inflammatory cytokine production was induced by ex vivo stimulation with LPS in freshly obtained whole blood samples, to measure downstream markers of RO6868847-mediated CB2 receptor internalization and explore its pharmacological profile. Serum levels of TNF-α, G-CSF, IL-1β, and […], of participants in Study BP40387 were assessed to investigate the changes of these cytokines in the presence of repeated dose administration of up to 300 mg RO6868847 once-daily for 14 days. […] It should be noted that the IL1-β analysis was negatively affected by a substantial proportion of baseline data, not being reportable (see FIG. 8), especially at the highest tested doses of 300 mg of RO6868847. Substantial variability in these measurements was observed. However, this was expected and no dedicated predefined statistical analysis was performed since cohort sizes were small for this exploratory assessment."}, "[7]": {"details": "diabetic patients and matched healthy participants"}, "[8]": {"details": "steady-state, up to 300 mg once-daily for 14 days"}}, "note": "“Also recorded” adds a separate entry of the source. Read-outs that look alike come from different tables or passages of the source.", "data": [{"smiles": "Cn1nnnc1Cn1nnc2c(N3CC[C@H](O)C3)nc(C(C)(C)C)nc21", "note": "[RO6868847, (3S)-1-[5-tert-butyl-3-[(1-methyltetrazol-5-yl)methyl]triazolo[4,5-d]pyrimidin-7-yl]pyrrolidin-3-ol]", "values": [{"measurement": "EC50", "setting": "human CB1", "value": "> 10", "unit": "µM"}, {"measurement": "IC50", "setting": "human CB1", "value": "> 10", "unit": "µM"}, {"measurement": "CB1/CB2 Ratio (functional selectivity)", "setting": "human CB1; CB1 EC50 over CB2 EC50", "value": ">3600", "unit": "fold"}, {"measurement": "receptor activation or inhibition", "setting": "human CB1; highest concentration of 10 μM", "value": "no receptor activation or inhibition"}, {"measurement": "IC50", "setting": "cynomolgus monkey CB2", "value": "0.103 ± 0.0172", "unit": "µM"}, {"measurement": "Ki", "setting": "cynomolgus monkey CB2; read-out: Ki ± SE", "value": 0.0668, "unit": "µM"}, {"measurement": "decrease in disease marker (hyperfluorescence area)", "setting": "[1]; rat, at unbound AUC0-24 2.8 ng·hr/mL", "value": 50, "unit": "%"}, {"measurement": "unbound AUC0-24 [S-epimer], lower bound of pharmacologically active exposure", "setting": "[1]; rat, in vivo", "value": 2.8, "unit": "ng·hr/mL"}, {"measurement": "retinal hyperfluorescence", "setting": "[1]; rodent laser injury model", "value": "reduction of retinal hyperfluorescence"}, {"measurement": "IC50", "setting": "[2]; Homo sapiens, DM, 3/9, read-out: IC50 (IL-1β)/μM", "value": "29.4 ± 24.1", "unit": "µM"}, {"measurement": "IC50", "setting": "[2]; Homo sapiens, DM, 7/9, read-out: IC50 (IFNγ)/μM", "value": "6.91 ± 2.29", "unit": "µM"}, {"measurement": "IC50", "setting": "[2]; Homo sapiens, HV, 3/8, read-out: IC50 (TNFα)/μM", "value": "7 ± 4.61", "unit": "µM"}, {"measurement": "IC50", "setting": "[2]; Homo sapiens, HV, 5/8, read-out: IC50 (IL-1β)/μM", "value": "5.02 ± 4.58", "unit": "µM"}, {"measurement": "IC50", "setting": "[2]; Homo sapiens, HV, 6/8, read-out: IC50 (IFNγ)/μM", "value": "10.9 ± 8.9", "unit": "µM"}, {"measurement": "IC50", "setting": "[2]; Homo sapiens, Matched HVs, 4/8, read-out: IC50 (IFNγ)/μM", "value": "12.4 ± 4.19", "unit": "µM"}, {"measurement": "EC50", "setting": "[2]; Homo sapiens, HV, curves fitted 5/8", "value": "7.97 ± 6.71", "unit": "µM"}, {"measurement": "G-CSF and TNFα levels post LPS", "setting": "[2]; [7]", "value": "an overall drug response in the explored exposure range could not be concluded"}, {"measurement": "IFNγ level post LPS", "setting": "[2]; [7]", "value": "dose-dependent attenuation of IFNγ"}, {"measurement": "chemokine and cytokine levels post LPS stimulation", "setting": "[2]; healthy participants n=8, 0-30 μM, LPS 100 ng/ml, 18 h", "value": "decrease of IFNγ, IL1β, TNFα and elevation of G-CSF"}, {"measurement": "stability to temperature stress", "setting": "[3]", "value": "fairly stable"}, {"measurement": "stability to light", "setting": "[3]; solid state and solution", "value": "stable to light"}, {"measurement": "selectivity for CB2", "setting": "[4]", "value": "excellent selectivity for CB2"}, {"measurement": "time dependence of pharmacokinetics", "setting": "[5]; in vivo", "value": "absence of relevant PK time dependencies; also recorded: no evidence of time-dependent pharmacokinetics"}, {"measurement": "time to steady state", "setting": "[5]; once-daily dosing", "value": "approximately after the second day of dosing; also recorded: approximately after the second day of treatment"}, {"measurement": "accumulation of Cmax and AUCtau", "setting": "[5]; once-daily dosing, independent of dose", "value": "only minor accumulation"}, {"measurement": "LPS-induced cytokine release / pro-inflammatory cytokine production", "setting": "[6]; multiple doses, MAD", "value": "appeared to attenuate; also recorded: attenuation of LPS-induced cytokine release was observed only at the higher end of the dose range"}, {"measurement": "IFN-γ level after ex vivo LPS vs baseline", "setting": "[6]; [8]", "value": "did not show any detectable trend"}, {"measurement": "TNF-α, G-CSF and IL1-β levels after ex vivo LPS vs baseline", "setting": "[6]; [8]", "value": "concentration-dependent effect"}]}]}
